Assay results as given in patent publication US8999375B2, “Compositions including pyruvate for companion animals and methods of use thereof” (Hill's Pet Nutrition, Inc., priority 2009, dated 2015).

System: arthritic and normal cats
Assay: Feline arthritis biomarker measurements in arthritic and normal cats
Type: in vivo
Conditions: 1% by weight in diet, 28 days
Procedure: Calcium pyruvate was tested in arthritic and normal cats to determine efficacy in reducing cartilage damage and inflammatory markers. Ten normal and ten arthritis cats were fed the feline control diet enhanced with 1% by weight calcium pyruvate for 28 days. Analysis was performed on natural log transformed values. Means and SED are antilog values of log transformed data.

calcium pyruvate
concentration of serum HMGB1 (in words): reduced | concentration of serum IL-1 beta (in words): reduced | marker of bone formation, BAP (in words): improved
